Several values for one entry are separate records, joined by “and”; a condition that tells them apart may be missing. Equal values may be shown once. Read-outs that look alike come from different tables or passages of the source.
Experiments:
male CD-1 mice = assay: Neurological assessment (score 0-3) immediately prior to seizure test; assay type: in vivo, mouse; design: key to Neurological Score: 0: Normal; 1: Modest decrease in spontaneous activity; 2: Marked decrease in spontaneous activity; 3: Loss of righting reflex; settings: for Neurological Score: 30 min after dosing, individual animals
Method: Immediately prior to each seizure test, a brief neurological assessment was performed.

[1] = tested on: male CD-1 mice, 6 Hz (22 mA) corneal stimulus psychomotor seizure; assay: Mouse 6 Hz seizure (22 mA) test; assay type: in vivo; settings: for % Seizure, group / % Seizure / F. Clonus / Lat H. Movement / Straub T. / Stun / Total (seizure score) / Total (seizure score), group mean / ED50: 30 min before test; for % Seizure: individual animals (0/1); for F. Clonus / Lat H. Movement / Straub T. / Stun / Total (seizure score): individual animals; for ED50: Mus musculus, IP
Method: This study assessed the anti-epileptic effects of low doses of dronabinol in the mouse 6 Hz seizure (22 mA) test at 4 dose levels. Sixty male CD-1 mice were randomly allocated to 1 of 7 treatment groups outlined in Table 1 below. The mice were purchased from Charles River Laboratories (St. Constant, Quebec, Canada). On the day of the experiment, general health observations and body weight measurements were performed prior to dosing. Thirty (30) minutes after administration of assigned treatments in Table 1, animals underwent a neurological assessment followed immediately by 6 Hz testing. Descriptions of these procedures are provided below.
Dronabinol and sodium valproate were dissolved in their respective vehicles on the day of dosing. Treatments were intraperitoneally administered to the lower right quadrant of the abdomen according to standard operating procedures. Treatment group summaries are included in Table 1.
On the scheduled test day, subjects received a dose of their assigned treatment 30 minutes before the electrical stimulus. Following neurological assessments, animals then received an electrical stimulus (6 Hz, 0.2 millisecond pulse width, 3 second duration, 22 mA) via corneal electrodes moistened with saline (ECT unit 57800; Ugo Basile). In approximately 50% of control animals, these stimulus parameters should elicit a psychomotor seizure within 30 seconds of stimulus delivery, defined as the expression of at least one of the following behaviours: stun/immobility, forelimb clonus, straub tail, or lateral head movement. Protection was defined as complete absence of the following: stun/immobility, forelimb clonus, straub tail and/or lateral head movement, within 30 seconds of stimulus delivery. A seizure score was assigned to each animal based on the number of these behaviours expressed by the animal after stimulus application. Once the animal either entered into a seizure, or 30 seconds elapsed, the endpoint was reached, and the animal was immediately euthanized.
All statistical analyses were performed using GraphPad Prism v.7.03. Analysis of variance (ANOVA) was completed for total seizure score data with the independent grouping variable of treatment (i.e., test article dose and control). In the event of a significant main effect, post-hoc Fisher's least significant difference analysis was conducted to compare vehicle with drug treatment.

[2] = tested on: GTC seizures in human patient; assay: Example 2 human patient, Dravet syndrome; assay type: in vivo
Method: A patient first started having seizures and was subsequently diagnosed with Dravet syndrome. Initially, they were having clusters of 2 GTC seizures a day for 2 days occurring about every 2 weeks. Keppra was ineffective as were other combinations of anti-epileptic drugs. Several different combinations were tried and by the time they were first seen for evaluation for cannabinoid treatment on Aug. 7, 2014, they were taking Depakote 125 mg BID, Clonazepam 0.5 mg TID, and Versed/Diastat as needed for rescue but was still having clusters of GTC seizures every 2 weeks. The patient had started a CBD product on Jul. 3, 2014 (product analysis: 11.2 mg CBD/gm with 0.38 mg THC/gm at a dose of 0.7 mL TID (unknown concentration per mL), but seizures still were occurring irregularly—primarily GTC occurring in clusters of 1-2 per day every two weeks, rare atonic, and occasional eye-flutters.

[3] = tested on: seizures in human patient; assay: Example 3 human patient, GTC and complex partial seizures; assay type: in vivo; settings: including ataxia; discontinued after 6 months
Description: A patient first started having GTC and complex partial (CP) seizures. […] The patient was referred for evaluation for initiation of cannabinoid/THC treatment in March 2014.

[4] = tested on: GTC seizures in human patient; assay: Example 7 human patient, intractable GTC seizures; assay type: in vivo
Description: A patient was first diagnosed with intractable GTC seizures without status epilepticus in 2001.
The patient first presented for cannabinoid treatment on May 24, 2013. They were then a PhD student in economics. The patient's medical history is significant for having a car accident with a concussion and “scarring”. They developed GTC seizures occurring 3 times per month. […] In 2008, they started using recreational cannabis occasionally, but not regularly.

## CCCCCc1cc(O)c2c(c1)OC(C)(C)[C@@H]1CCC(C)=C[C@@H]21 [Dronabinol]
Male CD-1 mice; 0.002 mg/kg IP, N = 8
  Neurological Score: 0
  Neurological Score, group mean: 0.0
Male CD-1 mice; 0.02 mg/kg IP, N = 8
  Neurological Score: 0
  Neurological Score, group mean: 0.0
Male CD-1 mice; 0.2 mg/kg IP, N = 8
  Neurological Score: 0
  Neurological Score, group mean: 0.0
Male CD-1 mice; 0.002-4 mg/kg IP
  effect on behaviour as measured by neurological scoring: no measurable effect on behaviour
Male CD-1 mice; 2 mg/kg IP, N = 11
  Neurological Score: 0
  Neurological Score, group mean: 0.0
Male CD-1 mice; 4 mg/kg IP, N = 9
  Neurological Score: 0
  Neurological Score, group mean: 0.0
[1]; 0.002 mg/kg IP, N = 8
  % Seizure, group: 62.5%
  % Seizure: 1 (5×) and 0 (3×)
  F. Clonus: 1 (4×) and 0 (4×)
  Lat H. Movement: 1 (3×) and 0 (5×)
  Straub T.: 0 (7×) and 1
  Stun: 1 (4×) and 0 (4×)
  Total (seizure score): 3 (2×) and 2 (3×) and 0 (3×)
  Total (seizure score), group mean: 1.5
[1]; 0.02 mg/kg IP, N = 8
  % Seizure, group: 50.0%
  % Seizure: 0 (4×) and 1 (4×)
  F. Clonus: 0 (7×) and 1
  Lat H. Movement: 0 (5×) and 1 (3×)
  Straub T.: 0 (7×) and 1
  Stun: 0 (5×) and 1 (3×)
  Total (seizure score): 0 (4×) and 2 (2×) and 1 and 3
  Total (seizure score), group mean: 1.0
[1]; 0.2 mg/kg IP, N = 8
  % Seizure, group: 50.0%
  % Seizure: 0 (4×) and 1 (4×)
  F. Clonus: 0 (6×) and 1 (2×)
  Lat H. Movement: 0 (7×) and 1
  Straub T.: 0 (5×) and 1 (3×)
  Stun: 0 (4×) and 1 (4×)
  Total (seizure score): 0 (4×) and 3 (2×) and 2 (2×)
  Total (seizure score), group mean: 1.3
[1]; 2 mg/kg IP, N = 11
  % Seizure, group: 54.5%
  % Seizure: 1 (6×) and 0 (5×)
  F. Clonus: 1 (5×) and 0 (6×)
  Lat H. Movement: 0 (8×) and 1 (3×)
  Straub T.: 0 (10×) and 1
  Stun: 0 (8×) and 1 (3×)
  Total (seizure score): 1 (2×) and 0 (5×) and 2 (3×) and 4
  Total (seizure score), group mean: 1.0
[1]; 4 mg/kg IP
  seizure incidence in the 6 HZ seizure test: Decreased seizure incidence
[1]; 4 mg/kg IP, N = 9
  % Seizure, group: 33.3%
  % Seizure: 0 (6×) and 1 (3×)
  F. Clonus: 0
  Lat H. Movement: 0
  Straub T.: 0 (8×) and 1
  Stun: 0 (6×) and 1 (3×)
  Total (seizure score): 0 (6×) and 1 (2×) and 2
  Total (seizure score), group mean: 0.4
[1]; 0.02, 2, and 4 mg/kg doses IP, p<0.05
  seizure scores (mean±SEM) vs vehicle, post-hoc analysis: reduction in seizure scores
[1]; 0.002 to 4 mg/kg doses, 95% confidence limits 1.36-11.82 mg/kg, read-out: ED50, decrease in percentage incidence of seizures
  ED50: 4.01 mg/kg
[1]; 95% CI (0.01-1.05), read-out: ED50, decrease in the seizure score
  ED50: 0.1 mg/kg

## CC(C)(C)C(O)/C=C/c1ccc2c(c1)OCO2 (stereo not drawn) [stiripentol]
[2]; stiripentol added to Depakote and Onfi (and THC 5 mg HS)
  myoclonic seizures: resolution of myoclonic seizures

## CCCC(CCC)C(=O)O [Depakote]
[3]
  side effects: debilitating side effects

## NC(=O)N1c2ccccc2CC(=O)c2ccccc21 [Trileptal]
[4]; Trileptal
  side effects: concerning side effects

## CCCC(CCC)C(=O)[O-].[Na+] [Sodium Valproate, Sodium valproate]
Male CD-1 mice; 600 mg/kg IP
  motor impairment (neurological assessment): noticeable motor impairment on all animals
Male CD-1 mice; 600 mg/kg IP, N = 4
  Neurological Score: 2
  Neurological Score, group mean: 2.0
[1]; 600 mg/kg IP, N = 4
  % Seizure, group: 0.0%
  % Seizure: 0
  F. Clonus: 0
  Lat H. Movement: 0
  Straub T.: 0
  Stun: 0
  Total (seizure score): 0
  Total (seizure score), group mean: 0.0
[1]; p<0.01
  seizure scores (mean±SEM) vs vehicle, post-hoc analysis: reduction in seizure scores

## CC[C@@H](C(N)=O)N1CCCC1=O [Keppra, levetiracetam]
[2]; Dravet patient, initial treatment
  effect on seizures: ineffective

## NC(=O)N1c2ccccc2C=Cc2ccccc21 [Tegretol]
[4]; Tegretol (dose unknown)
  side effects: concerning side effects
